Like-named read-outs stand apart in the source and are kept apart here.
Experiments:
Assay type in all cases: cell-based
MEF (C57BL/6) = test: MTT cell viability assay, MEF (C57BL/6); conditions: Mus musculus
Description: (§1) Cells were then treated with compound at various concentrations in 0.2 mL media. After the 72-hour incubation period, cells were washed in PBS (3×100 μL), and 10 μL MTT reagent was added with 100 μL fresh media. Cells were then incubated for 4 hr in a humidified chamber at 37° C. with 5% CO2. Insoluble formazan crystals were solubilized by addition of 0.1 mL detergent solution (4 hr at room temp., dark). Resulting colored solutions were then quantified at an absorbance of 570 nm.

MDA-MB-231 = test: MTT cell viability assay, MDA-MB-231; conditions: Homo sapiens
Description: as §1

MCF-7 = test: MTT cell viability assay, MCF-7; conditions: Homo sapiens, read-out: IC50/μM MCF-7
Description: as §1

[1] = MTT, 72-hour incubation, read-out: IC50/μM MEF (C57BL/6)
[2] = 72 h, read-out: IC50/μM MEF (C57BL/6), MTT, 72-hour incubation
[3] = MDA-MB-231, 72 h, 72-hour incubation
[4] = MCF7, 72 h, MTT, 72-hour incubation

| SMILES | IC50 (MEF (C57BL/6); [1]) [µM] | IC50 (MDA-MB-231; MDA-MB-231, 72-hour incubation) [µM] | IC50 (MCF-7; MCF7, MTT, 72-hour incubation) [µM] | IC50 (MEF (C57BL/6); [2]) [µM] | IC50 (MDA-MB-231; [3]) [µM] | IC50 (MCF-7; MCF7, 72 h) [µM] | IC50 (MCF-7; [4]) [µM] |
| --- | --- | --- | --- | --- | --- | --- | --- |
| CCn1c(=O)/c(=C2\Sc3cc(SC)ccc3N2C)s/c1=C\c1scc[n+]1Cc1c(Cl)cccc1Cl [JG-354] | 1.1 ± 0.1 | 0.096 ± 0.01 | 0.13 ± 0.01 |  |  |  |  |
| CCn1c(=O)/c(=C2\Sc3cc(OC)ccc3N2C)s/c1=C\c1scc[n+]1CCc1cccc(C(F)(F)F)c1 [JG-393] | 2.1 ± 0.1 | 0.21 ± 0.01 | 0.68 ± 0.13 |  |  |  |  |
| CCn1c(=O)/c(=C2\Sc3cc(C)ccc3N2C)s/c1=C\c1scc[n+]1Cc1ccccc1C [JG-284] | 0.64 ± 0.03 | 0.09 ± 0.005 | 0.09 ± 0.006 |  |  |  |  |
| CCn1c(=O)/c(=C2\Sc3cc(Cl)ccc3N2C)s/c1=C\c1scc[n+]1Cc1ccccc1OC [JG-263] |  |  |  | 1.5 ± 0.1 | 0.12 ± 0.01 | 0.4 ± 0.03 |  |
| C=CCn1c(=O)/c(=C2\Sc3ccccc3N2C)s/c1=C\c1scc[n+]1Cc1ccccc1 [JG-276] | 2.5 ± 0.1 | 0.27 ± 0.03 | 0.24 ± 0.02 |  |  |  |  |
| CCn1c(=O)/c(=C2\Sc3ccc(OC)cc3N2C)s/c1=C\c1scc[n+]1Cc1ccccc1OC(F)(F)F [JG-400] |  |  |  | 2.2 ± 0.1 | 0.16 ± 0.01 |  | 0.16 ± 0.02 |
| CCn1c(=O)/c(=C2\Sc3cc(SC)ccc3N2C)s/c1=C\c1scc[n+]1Cc1ccsc1C(=O)OC [JG-313] | 1.4 ± 0.1 | 0.16 ± 0.02 | 0.2 ± 0.01 |  |  |  |  |
| CCn1c(=O)/c(=C2\Sc3ccc(OC)cc3N2C)s/c1=C\c1scc[n+]1Cc1ccccc1SC(F)(F)F [JG-399] | 3.1 ± 0.2 | 0.11 ± 0.01 | 0.2 ± 0.01 |  |  |  |  |
| CN1/C(=c2\s/c(=C\c3scc[n+]3Cc3ccccc3)n(C)c2=O)Sc2ccccc21 [JG-277] | 4.1 ± 0.2 | 0.49 ± 0.05 | 0.39 ± 0.03 |  |  |  |  |
| CCn1c(=O)/c(=C2\Sc3cc(Cl)ccc3N2C)s/c1=C\c1scc[n+]1Cc1occc1C(=O)OC [JG-265] |  |  |  | 2.7 ± 0.1 | 0.13 ± 0.01 |  | 0.81 ± 0.09 |
| CCn1c(=O)/c(=C2\Sc3cc(Cl)ccc3N2C)s/c1=C\c1scc[n+]1Cc1ccnc(Cl)c1 [JG-257] | 1.1 ± 0.1 |  | > 5 |  | 7.2 ± 0.8 |  |  |
| CCn1c(=O)/c(=C2\Sc3cc(C)ccc3N2C)s/c1=C\c1scc[n+]1CCc1cccc(C(F)(F)F)c1 [JG-384] | 1.1 ± 0.1 | 0.68 ± 0.1 | 0.62 ± 0.08 |  |  |  |  |
| CCn1c(=O)/c(=C2\Sc3cc(SC)ccc3N2C)s/c1=C\c1scc[n+]1C(C)c1ccccc1 (stereo not drawn) [JG-321] | 1.8 ± 0.1 | 0.14 ± 0.01 | 0.23 ± 0.03 |  |  |  |  |
| CCc1ccc2c(c1)S/C(=c1/s/c(=C\c3scc[n+]3Cc3ccccc3Cl)n(CC)c1=O)N2C [JG-295] | 0.48 ± 0.01 | 0.093 ± 0.005 | 0.084 ± 0.006 |  |  |  |  |
| CCn1c(=O)/c(=C2\Sc3ccc(OC)cc3N2C)s/c1=C\c1scc[n+]1Cc1c(Cl)cccc1Cl [JG-403] | 1.2 ± 0.1 | 0.2 ± 0.01 | 0.7 ± 0.08 |  |  |  |  |
| CCn1c(=O)/c(=C2\Sc3cc(OC)ccc3N2C)s/c1=C\c1scc[n+]1CCc1ccccc1C [JG-398] | 1.1 ± 0.1 | 0.14 ± 0.01 | 0.24 ± 0.02 |  |  |  |  |
| CCn1c(=O)/c(=C2\Sc3cc(C)ccc3N2C)s/c1=C\c1scc[n+]1Cc1ccccc1OC [JG-375] |  |  |  | 0.96 ± 0.03 | 0.082 ± 0.01 |  | 0.071 ± 0.006 |
| CCc1ccc2c(c1)S/C(=c1/s/c(=C\c3scc[n+]3Cc3ccccc3OC)n(CC)c1=O)N2C [JG-346] | 0.71 ± 0.03 | 0.073 ± 0.007 | 0.11 ± 0.01 |  |  |  |  |
| CCn1c(=O)/c(=C2\Sc3cc(OC)ccc3N2C)s/c1=C\c1scc[n+]1Cc1ccccc1Cl [JG-301] |  |  |  | 0.66 ± 0.01 | 0.033 ± 0.005 |  | 0.048 ± 0.003 |
| CCn1c(=O)/c(=C2\Sc3cc(OC)ccc3N2C)s/c1=C\c1scc[n+]1C(C)c1ccccc1 (stereo not drawn) [JG-322] | 1.7 ± 0.1 | 0.15 ± 0.01 | 0.14 ± 0.01 |  |  |  |  |

Source: US10221171B2, “Oxathiazole thiazolium Hsp 70 inhibitors” (THE REGENTS OF THE UNIVERSITY OF CALIFORNIA, priority 2015, dated 2019)
